# Assays:
# [1] = microbe, parasite or virus in culture; details: Mycobacterium tuberculosis, 96 h, read-out: pIC50 (converted)
# [2] = microbe, parasite or virus in culture; details: Mycobacterium tuberculosis, 72 h, read-out: pIC50 (converted)
SMILES,IC50 [1],IC50 [2]
Cc1cc(NC(C)c2ccco2)nc(N)n1 (stereo not drawn),> 501 µM,> 501 µM
O=C(NCc1[nH]ncc1Br)Nc1nc2c(s1)COCC2,> 501 µM,328 µM
CN(C)c1ccc(C(=O)N2CCCC2c2ccc(Cl)cc2)nn1 (stereo not drawn),> 50.1 µM,> 50.1 µM
O=C1CN(CC(=O)N2CCCCCCC2)CCN1,> 501 µM,> 501 µM
Nc1nccnc1C(=O)NCc1cc(Br)cs1,132 µM,93.5 µM
O=C(Oc1nsnc1N1CCCCC1)N1CCOCC1,432 µM,168 µM
Fc1cnc(N2CCOCC3(CCCN(c4cnccn4)C3)C2)nc1 (stereo not drawn),> 50.1 µM,> 50.1 µM
NCC(=O)N1CCCC(CCc2c(F)cccc2F)C1 (stereo not drawn),258 µM,238 µM
COCCC(CO)NC(=O)c1cnn(C(C)C)c1C (stereo not drawn),124 µM,110 µM
CCc1cccc(S(=O)(=O)N2CC[C@H](N)C2)c1,> 501 µM,183 µM
CC(C)N1CC(C(=O)NCc2ccc(S(=O)(=O)N(C)C)cc2)CC1=O (stereo not drawn),> 50.1 µM,> 50.1 µM
Clc1ccc(-c2noc(CN3CCCNCC3)n2)cc1,216 µM,213 µM
OC[C@@H]1CCCN1Cc1cccc(F)c1F,> 501 µM,> 501 µM
NC(=O)Nc1cccc(C(=O)Nc2ccc(Cl)cn2)c1,132 µM,126 µM
COC(=O)[C@@H]1C[C@@H](O)CN1Cc1ncc(C(C)(C)C)o1,> 501 µM,> 501 µM
O=C(c1cc(C2CC2)on1)N1CCC(Oc2ncccc2Br)CC1,24.2 µM,> 50.1 µM
Cc1nnc(SCCC(=O)N(C)Cc2ccc(F)cc2F)[nH]1,> 50.1 µM,> 50.1 µM
CCC(c1nnc(SCC(=O)NCC(C)C)o1)N(C)C (stereo not drawn),192 µM,217 µM
CCCOc1cccc(NC(=O)C(C)n2cncn2)c1 (stereo not drawn),331 µM,370 µM
O=C1Nc2ccccc2NC12CCN(c1cccc(C(F)(F)F)n1)CC2,> 50.1 µM,> 50.1 µM
COc1ncc(CN2CCOC(Cc3cccc4ccccc34)C2)cn1 (stereo not drawn),> 50.1 µM,> 50.1 µM
c1cn(C2CCNCC2)nn1,409 µM,354 µM
CC(=O)N1CCCC(c2cnc(-c3c(C)nn(C)c3C)cn2)C1 (stereo not drawn),> 50.1 µM,> 50.1 µM
O=C(c1cc(C2CC2)on1)N1CCC(Oc2ncccc2Cl)CC1,24.9 µM,48.7 µM
Cc1cccc(C(=O)NCC(C)N2CCCC2)n1 (stereo not drawn),> 501 µM,306 µM
CN(CCc1ccccc1)CCS(=O)(=O)CCC(N)=O,175 µM,442 µM

SMILES,IC50 [1],IC50 [2]
COc1ccc(CN2CCCNCC2)cc1,163 µM,258 µM
C=Cc1ccc(CN2C(=O)C3(CCNCC3)Nc3ccccc32)cc1,26.5 µM,28.2 µM
Cc1nn(C)cc1S(=O)(=O)NCC(c1ccccc1)N1CCCCCC1 (stereo not drawn),> 50.1 µM,> 50.1 µM
NCc1noc(-c2cccc(Br)c2)n1,> 501 µM,127 µM
CCOc1cc(C(=O)NCCCOC(C)C)ccn1,137 µM,87.9 µM
Cc1nc(Nc2ncccn2)cc(C2CN(C(=O)c3cccnc3)C2)n1,> 50.1 µM,> 50.1 µM
CCn1nnc(NCc2ccc(-c3ccc(Br)cc3)o2)n1,14.1 µM,44.3 µM
CN1CCOC(C(=O)Nc2ncc(Cl)s2)C1 (stereo not drawn),296 µM,361 µM
CCN(CC1CCOC1)C(=O)c1cc(I)c[nH]1 (stereo not drawn),> 501 µM,212 µM
CCNc1nnc(SCc2ncccc2C)s1,58 µM,96.1 µM
CC(=O)NCC(=O)N1CCc2nc(-c3ccccc3)nc(C)c2CC1,> 50.1 µM,> 50.1 µM
CCN1CC2(CC1=O)CN(Cc1cnn(C)c1)CCN(C(=O)C(C)C)C2 (stereo not drawn),> 50.1 µM,> 50.1 µM
O=C(c1c[nH]c2ccccc2c1=O)N1CCSCC1,> 50.1 µM,27.8 µM
CC(C)c1cccc(S(=O)(=O)N2CCCC2CN)c1 (stereo not drawn),> 501 µM,399 µM
Nc1cc(N2CCCC(CO)(Cc3ccccc3F)C2)nc(N)n1 (stereo not drawn),45.3 µM,47.1 µM
COc1ccc(CCSc2nnc[nH]2)cc1,111 µM,142 µM
COC(=O)CS(=O)(=O)c1ccc(C)c(Cl)c1,> 501 µM,249 µM
COC(=O)[C@H](C)NC(=O)c1cc(-c2cccc(Cl)c2)no1,26 µM,42.5 µM
COc1cc(OC)cc(N2CCC(N)C2)c1 (stereo not drawn),213 µM,232 µM
Cc1nnc(N2CC[C@@H](OCC3CC3)[C@@H](Cc3ccccc3)C2)s1,> 50.1 µM,38.3 µM
COCCCN1CCN(c2ccccc2OC)CC1 [DIMETHOLIZINE],> 501 µM,346 µM
N#Cc1cccnc1NC1CCN(c2ccccc2OC(F)F)C1=O (stereo not drawn),1.27 µM,> 50.1 µM
N#Cc1ccccc1CN1CCCC1CO (stereo not drawn),176 µM,129 µM
C=C(Br)CN1CCN(CCNC(=O)C2CCC2)CC1,> 501 µM,278 µM
Nc1nnc(SCc2ccccc2F)s1,157 µM,248 µM
COC(=O)c1cnc(/C=C/c2ccc(C(=O)O)cc2)s1,27.3 µM,26.6 µM

SMILES,IC50 [1],IC50 [2]
CN(Cc1ccco1)CC(O)COCc1cccs1 (stereo not drawn),188 µM,235 µM
COCC(C)Nc1cccc(F)c1C#N (stereo not drawn),> 501 µM,> 501 µM
CN(C1(C#N)CCC1)S(=O)(=O)c1cccs1,> 501 µM,323 µM
Cc1cc(-c2noc(C(C)N)n2)ccc1F (stereo not drawn),> 501 µM,457 µM
CCC(C)c1cc(C(=O)Nc2ncccc2O)on1 (stereo not drawn),268 µM,178 µM
CC(CCc1ccc(O)cc1)NC1(CO)CC1 (stereo not drawn),> 501 µM,199 µM
CCc1ccc(S(=O)(=O)N(C)CC(N)=O)s1,> 501 µM,244 µM
CNCCc1ccccc1OC,124 µM,74.4 µM
c1ccc(NC2CCN(C3CCCC3)C2)nc1 (stereo not drawn),> 501 µM,> 501 µM
COCc1nn(CCC2CCCC2)c(=O)o1,86.6 µM,68.2 µM
COc1cccc(SCC(=O)N2CCOC(C)C2)c1 (stereo not drawn),> 501 µM,> 501 µM
CC(C)Oc1ccc(C(=O)NCc2ccnc(N3CCCC3)c2)cn1,45.1 µM,36.9 µM
CC1CCCN1C1CCN(CCNS(C)(=O)=O)CC1 (stereo not drawn),> 501 µM,> 501 µM
OCC(O)CSCCc1ccccc1Cl (stereo not drawn),473 µM,136 µM
Cc1nnc(SCCCNC(=O)c2cc(Cl)c[nH]2)s1,119 µM,121 µM
Cc1csc(N2CCCN(C(=O)c3cnsn3)CC2)n1,> 501 µM,284 µM
COC(=O)c1ccc(N2CCC(C(O)c3ccccc3)CC2)nn1 (stereo not drawn),20.5 µM,24.3 µM
CC(C)c1cc(C(=O)N2CC(c3ccccn3)C2)no1,60.5 µM,70.5 µM
CNC(=O)C1CN(C(=O)c2cccs2)CCN(S(C)(=O)=O)C1 (stereo not drawn),> 50.1 µM,> 50.1 µM
CCN1CCN(Cc2nc(-c3ccccc3)no2)CC1,> 501 µM,> 501 µM
O=C(CSc1ccc(F)cc1)N1CCC1,> 501 µM,180 µM
COc1ccc([C@@H]2C[C@H](NC(C)=O)C[C@H](Cc3ccccc3)O2)cn1,28.3 µM,> 50.1 µM
COc1c(Cl)cc(NC(=O)C2COCCN2)cc1Cl (stereo not drawn),> 501 µM,200 µM
c1ccc(-c2nc(CCNCc3ccncc3)co2)cc1,> 50.1 µM,> 50.1 µM
CC(C)NS(=O)(=O)c1cc(CN)ccc1F,> 501 µM,> 501 µM
COc1cccc(NC(CN)c2ccccc2)c1 (stereo not drawn),> 501 µM,187 µM

SMILES,IC50 [1],IC50 [2]
COc1ccccc1CC(=O)Nc1ncc(C(N)=O)s1,> 501 µM,> 501 µM
Cc1cc(C(=O)N2CCC(C(N)=O)C2)cc(Cl)c1Br (stereo not drawn),262 µM,180 µM
CCCS(=O)(=O)N(C)Cc1ccc(OCC)cn1,280 µM,148 µM
CC(C)c1cc(N)[nH]n1,> 501 µM,> 501 µM
O=C(NCc1ccnc(N2CCCC2)c1)c1ccsc1,141 µM,114 µM
CN(Cc1ccc(N)nc1)c1ccc(C#N)cn1,> 501 µM,> 501 µM
COCCCSc1ccc(NCc2ccc(C)cn2)cc1,49.1 µM,> 50.1 µM
CN(C(=O)c1ccccc1)S(=O)(=O)c1ccccc1,303 µM,280 µM
CCCc1nc(N2CCCC(C)C2)c2c(n1)c(C)nn2CC (stereo not drawn),> 50.1 µM,24.2 µM
Cc1ccc2[nH]c(C(=O)N3CCN(C)CC3)cc2c1,316 µM,384 µM
Brc1cc2c(cc1CN1CCCNCC1)OCO2,460 µM,112 µM
O=C(NCC(CO)Cc1ccc(Cl)cc1)c1ccncc1Cl (stereo not drawn),> 50.1 µM,> 50.1 µM
Nc1cc(-c2cccnc2)on1,> 501 µM,284 µM
Cc1nc(C2CCCN(C(=O)c3ccc(S(C)(=O)=O)cc3)C2)no1 (stereo not drawn),> 50.1 µM,> 50.1 µM
COCCn1nnc(-c2cccc(OC)c2)n1,42.2 µM,43.7 µM
CCCN(CCC(=O)NC(=O)NC)CC1CCCCO1 (stereo not drawn),240 µM,93.8 µM
N#Cc1cccc(OCCn2cnc(C#N)n2)c1,304 µM,> 501 µM
CSc1cncc(NCCC(=O)N2CCCC2)n1,> 501 µM,336 µM
Cn1nc(CCN)c2ccccc21,197 µM,57.8 µM
N#Cc1ccc(NC2CCN(c3ncccn3)CC2)cc1C(F)(F)F,6.68 µM,12.2 µM
Cc1cccc(Cl)c1OCCN,> 501 µM,319 µM
CCNCc1ccc2c(c1)OCO2,> 501 µM,280 µM
Cc1ccc(N2CCN(c3ccccc3C)CC2C)nn1 (stereo not drawn),> 50.1 µM,> 50.1 µM
Cc1nc(CNC(=O)c2cc(C3CC3)[nH]n2)cs1,> 501 µM,> 501 µM
CC(C)C(O)CCNC(=O)Cc1cccc(O)c1 (stereo not drawn),> 501 µM,430 µM
COc1ccccc1OCC(C)CN (stereo not drawn),123 µM,82.9 µM

# From ChEMBL document CHEMBL3988442, “University of Dundee, Small-Polar-MMV Screening Library” (2021)
